Measurements: article PMC9321894, “Design and Anticancer Properties of New Water-Soluble Ruthenium–Cyclopentadienyl Complexes” (Pharmaceuticals, 2022)

Tests used:
[1] = target: T1, {HSA-warfarin} adduct, Sudlow site I of HSA (Homo sapiens, UniProt P02768); assay: Site-marker competitive study with warfarin; assay type: binding; conditions: HSA and warfarin equimolar 2.5 μM, Ru 0-45 μM, excitation 305 nm, emission ~380 nm
T1 construct: purchased Sigma-Aldrich
Protocol: Competitive binding studies were carried out by fluorescence using the classical site marker warfarin. The concentrations of HSA and warfarin were kept equimolar. The addition of complex 6 to {HSA-warfarin} solution was done according to the procedure described above for the steady-state fluorescence quenching studies.

HT29 colon cancer cells = assay: MTT cytotoxicity assay, HT29; assay type: cell-based, human; conditions: HT29, 72 h, mean ± SD n = 3
Protocol: The cytotoxic activity of all complexes was screened against A2780 (ovarian, Sigma-Aldrich, Lisboa, Portugal), MDAMB231 (breast, triple negative, ATCC), and HT29 (colon, ATCC) human cancer cells. Cells were grown in RPMI 1640 (A2780) or DMEM containing GlutaMax-I (MDAMB231), or McCoy’s (HT29) supplemented with 10% FBS and 1% penicillin/streptomycin (Invitrogen, Lisboa, Portugal). All cell lines were kept in a CO2 incubator (Heraeus, Hanau, Germany) with 5% CO2 at 37 °C in a humidified atmosphere. Cell viability was measured using the colorimetric MTT (3-(4,5-dimethylthiazol-2-yl)-2,5-diphenyltetrazolium bromide) assay. For the assays, cells were seeded in 200 μL of complete medium in 96-well plates and incubated at 37 °C for 24 h prior to complex treatment to allow cell adherence. The stock solutions in water (20 mM) of the complexes were freshly prepared and used for sequential dilutions in medium within the concentration range of 10^−10–10^−4 M. Cisplatin was also included in this study as a positive control. After careful removal of the medium, […] of a serial dilution of compounds in fresh medium was added to the cells, and incubation was carried out for 72 h at 37 °C. At the end of the treatment, the medium was discarded, and the cells were incubated with […] of an MTT solution in PBS (0.5 mg mL^−1). After 3 h incubation, medium was removed, and DMSO was added to solubilize the purple formazan crystals formed. The absorbance at 570 nm was measured using a plate spectrophotometer (Power Wave Xs, Bio-Tek, Winooski, VT, USA). Each experiment was repeated at least three times and each concentration tested in at least six replicates. The IC50 values were calculated from dose–response curves analyzed with the GraphPad Prism software (version 5.0).

[2] = target: T2, fatty-acid-free human serum albumin (HSA^faf) (Homo sapiens, UniProt P02768); assay: Fluorescence quenching of HSA^faf (Trp214); assay type: binding; conditions: for KSV: pH 7.4
T2 construct: purchased Sigma-Aldrich A3782
Protocol: (§1) Human serum albumin (HSA) was dissolved in 10 mM HEPES buffer (pH 7.4). The HSA concentration was determined spectrophotometrically using the absorbance value at 280 nm (ε280 = 36,500 M^−1cm^−1). Complex 6 was dissolved in 10 mM HEPES buffer (pH 7.4). A series of ruthenium-protein batch solutions were prepared by adding different concentrations of ruthenium solutions to the protein solution prepared previously. For fluorescence acquisition, the final HSA concentration was 2.5 μM, and the ruthenium were 0, 0.6, 1.2, 1.8, 2.5, 5, 7.5, 10, 12.5, 15, 17.5, 20, 22.5, 25, 27.5, 30, 32.5, 35, 37.5, 40, 42.5, and 45 μM. […] The reference solutions were prepared following the procedures described above without protein.
(§2) Steady-state fluorescence measurements were carried out with a Fluorolog Model-3.22 spectrofluorometer from Horiba Jobin Yvon at 293.15, 298.15, and 310.15 K. All measurements were performed in Hellma® semi-micro fluorescence cuvettes (Suprasil® quartz, path length 10 × 4 mm, chamber volume […]) with the 10 mm path length for the excitation of the sample. The excitation and emission slit widths were fixed at 4.0 nm, and the excitation wavelength was set at 295 nm to selectively excite the tryptophan 214 residue. The emission spectra were recorded from 305 to 550 nm. Solutions of ruthenium complex in 10 mM HEPES buffer pH 7.4 in corresponding concentrations were used as reference for the measured fluorescence spectra of protein-complex mixtures. […] The fluorescence intensities were corrected for the absorption of the exciting light and re-absorption of the emitted light to decrease the inner filter effect using UV–visible absorption data recorded for each sample on a Jasco V-660 spectrophotometer in the range of 260 to 900 nm with 1 cm path quartz cells.
(§3) Fluorescence quenching of HSA by complex [Ru(η5-C5H5)(mTPPMS)(bopy)][CF3SO3] (6) […]
(§4) F0 = 1 + K τ (Q) = 1 + K (Q) (S1) where F0 and F are the fluorescence intensities of HSA in the absence and presence of the quencher [Ru(η5-C5H5)(mTPPMS)(bopy)][CF3SO3]; [Q] is the quencher concentration; Kq is the bimolecular quenching constant; t0 is the average fluorescence lifetime of HSA in the absence of the quencher, and KSV is the Stern-Volmer quenching constant.
(§5) Figure S10. Stern-Volmer plots at pH7.4 for the quenching of (A) HSA and (B) HSA faf by [Ru(η5-C5H5)(mTPPMS)(bopy)][CF3SO3] at three temperatures (◆) 293 K, (●) 298 K, (▲) 310 K.
(§6) log(F0 − F) = log K + nlog[Q] ( S2) […]
(§7) where Ka is the association constant for a site and n is the number of binding sites by protein.
(§8) Figure S11. Double-log plots for the fluorescence quenching for the (A) {HSA-[Ru(η5-C5H5)(mTPPMS)(bopy)][CF3SO3]} and (B) {HSAfaf-[Ru(η5-C5H5)(mTPPMS)(bopy)][CF3SO3]} systems at three temperatures (◆) 293 K, (●) 298 K, (▲) 310 K. […]

[3] = target: T3, human serum albumin (HSA) (Homo sapiens, UniProt P02768); assay: Fluorescence quenching of HSA (Trp214); assay type: binding; conditions: for KSV: pH 7.4
T3 construct: purchased Sigma-Aldrich A1653
Protocol: as §1, §2, §3, §4, §5, §6, §7, §8

[4] = highest Ru concentration (45 μM), pH 7.4, incubation at 298 K for 24 h

T2 sequence (P02768 25-609): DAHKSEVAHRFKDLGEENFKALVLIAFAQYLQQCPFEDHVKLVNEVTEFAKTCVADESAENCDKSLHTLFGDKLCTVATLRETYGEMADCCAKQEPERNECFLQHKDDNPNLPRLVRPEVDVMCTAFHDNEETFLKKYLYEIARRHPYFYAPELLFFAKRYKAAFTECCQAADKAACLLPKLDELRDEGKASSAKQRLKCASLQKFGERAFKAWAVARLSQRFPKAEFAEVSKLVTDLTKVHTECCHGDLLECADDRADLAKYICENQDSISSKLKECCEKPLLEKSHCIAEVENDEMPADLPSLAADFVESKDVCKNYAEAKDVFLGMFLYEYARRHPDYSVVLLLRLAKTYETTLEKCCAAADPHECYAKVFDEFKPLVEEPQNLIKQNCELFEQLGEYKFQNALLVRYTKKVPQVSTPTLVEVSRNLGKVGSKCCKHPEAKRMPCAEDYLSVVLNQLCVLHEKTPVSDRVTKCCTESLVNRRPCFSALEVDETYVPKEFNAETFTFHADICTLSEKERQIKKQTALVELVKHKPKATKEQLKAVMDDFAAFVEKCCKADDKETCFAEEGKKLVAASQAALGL
T3 sequence (P02768 25-609): as above
T1 sequence (P02768 25-609): as above

[RuCp(mTPPMSNa)(bopy)][CF3SO3] [Compound 6]
Displacement of warfarin from {HSA-warfarin} adduct (in words) [1]: partially replaced
IC50 (HT29 colon cancer cells): 72.4 ± 50 µM
Ka (association constant for a site) ([2]; 293.15 K): (57.293 ± 1.27) × 10^4 L mol^−1
Kq ([2]; 293.15 K): (28.7 ± 0.49) × 10^12 L mol^−1 s^−1
n (number of binding sites) ([2]; 293.15 K): 1.048
ΔG ([2]; 293.15 K): -37.426 kcal/mol
KSV ([2]; 293.15 K): (28.7 ± 0.49) × 10^4 L mol^−1
Ka (association constant for a site) ([2]; 298.15 K): (66.764 ± 1.29) × 10^4 L mol^−1
Kq ([2]; 298.15 K): (40.7 ± 0.75) × 10^12 L mol^−1 s^−1
n (number of binding sites) ([2]; 298.15 K): 1.023
ΔG ([2]; 298.15 K): -37.899 kcal/mol
KSV ([2]; 298.15 K): (40.7 ± 0.75) × 10^4 L mol^−1
Ka (association constant for a site) ([2]; 310.15 K): (80.668 ± 1.17) × 10^4 L mol^−1
Kq ([2]; 310.15 K): (72.6 ± 1.02) × 10^12 L mol^−1 s^−1
n (number of binding sites) ([2]; 310.15 K): 1.006
ΔG ([2]; 310.15 K): -39.034 kcal/mol
KSV ([2]; 310.15 K): (72.6 ± 1.02) × 10^4 L mol^−1
ΔH ([2]; Van't Hoff, 293.15-310.15 K): 40.51 (R^2 = 0.9938) kJ mol^−1
ΔS ([2]; Van't Hoff, 293.15-310.15 K): 396.16 J mol^−1 K^−1
Quenching of fluorescence intensity [2, 4]: 97%
Ka (association constant for a site) ([3]; 293.15 K): (38.806 ± 1.26) × 10^4 L mol^−1
Kq ([3]; 293.15 K): (7.91 ± 0.10) × 10^12 L mol^−1 s^−1
n (number of binding sites) ([3]; 293.15 K): 1.136
ΔG ([3]; 293.15 K): -17.3 kcal/mol
KSV ([3]; 293.15 K): (7.91 ± 0.10) × 10^4 L mol^−1
Ka (association constant for a site) ([3]; 298.15 K): (19.467 ± 1.14) × 10^4 L mol^−1
Kq ([3]; 298.15 K): (8.73 ± 0.12) × 10^12 L mol^−1 s^−1
n (number of binding sites) ([3]; 298.15 K): 1.053
ΔG ([3]; 298.15 K): -17.64 kcal/mol
KSV ([3]; 298.15 K): (8.73 ± 0.12) × 10^4 L mol^−1
Ka (association constant for a site) ([3]; 310.15 K): (13.948 ± 1.15) × 10^4 L mol^−1
Kq ([3]; 310.15 K): (10.4 ± 0.15) × 10^12 L mol^−1 s^−1
n (number of binding sites) ([3]; 310.15 K): 0.994
ΔG ([3]; 310.15 K): -18.47 kcal/mol
KSV ([3]; 310.15 K): (10.4 ± 0.15) × 10^4 L mol^−1
ΔH ([3]; Van't Hoff, 293.15-310.15 K): 11.99 (R^2 = 0.9963) kJ mol^−1
ΔS ([3]; Van't Hoff, 293.15-310.15 K): 287.92 J mol^−1 K^−1
Quenching of fluorescence intensity [3, 4]: 75%
